Tests used:
[1] = Survival following acetaminophen (Tylenol) overdose; assay type: in vivo, C57BL/6J mice
[2] = tested on: 15-PGDH mRNA; assay: 15-PGDH mRNA levels by real-time PCR; assay type: cell-based
[3] = tested on: A549 cells; assay: PGE2 levels in the medium of IL1-beta stimulated A549 cells; assay type: cell-based;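 further: PGE2 in the collected culture medium quantified by enzyme immunoassay (ELISA), with data drawn from three independent experiments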
[4] = tested on: 15-PGDH-luciferase fusion reporter in V9m, LS174T and V503 cells; assay: 15-PGDH-luciferase fusion gene reporter induction, stated for the three cell line backgrounds together; assay type: cell-based; details: V9m, LS174T, V503; FIG. 1
[5] = Survival of irradiated mice receiving a bone marrow transplant; assay type: in vivo, C57BL/6J mice
Text: The experimental design is depicted in FIG. 50.
Under the conditions of the mouse colony during this study, control mice receiving 100,000-500,000 cells are all dead between days 4-13 of study. […] Such activity would be of particular utility in settings, such as transplantation with umbilical cord stem cells, in which donor cell numbers are limited.

[6] = tested on: liver; assay: Liver regeneration after partial hepatectomy; assay type: in vivo, mice
[7] = tested on: A549 cells; assay: Cellular toxicity on A549 cells (CellTiter-Glo); assay type: cell-based; details: 24 hours; concentrations of up to 10 uM

SMILES: CCCC[S+]([O-])c1sc2nc(-c3cccs3)cc(-c3ccccc3)c2c1N (stereo not drawn) [SW033291, 2-(butylsulfinyl)-4-phenyl-6-(thiophen-2-yl)thieno[2,3-b]pyridin-3-amine]
- number of mice surviving ([1]; acetaminophen 600 mg/kg, 5 mg/kg 2 dose/daily, first dose immediately after Tylenol injection, 16 hr): 6
- Survival (number of mice) ([1]; acetaminophen 600 mg/kg, 5 mg/kg bid beginning 3 hours prior to acetaminophen, 6 doses, cohort of 6, 16 hr): 6
- Survival (number of mice) ([1]; acetaminophen 600 mg/kg, 5 mg/kg bid beginning 48 hours prior to acetaminophen, 9 doses, cohort of 12, 16 hr): 12
- mice survived at 120 hours ([1]; bid beginning 3 hours prior to acetaminophen): 3 of 6
- Survival (number of mice) ([1]; bid beginning 3 hours prior to acetaminophen, 24 hrs): 5
- Survival (number of mice) ([1]; bid beginning 3 hours prior to acetaminophen, 48 hrs): 3
- Survival (number of mice) ([1]; bid beginning 3 hours prior to acetaminophen, 64 hrs): 3
- Survival (number of mice) ([1]; bid beginning 3 hours prior to acetaminophen, 72 hrs): 3
- Survival (number of mice) ([1]; bid beginning 3 hours prior to acetaminophen, 88 hr): 3
- Survival (number of mice) ([1]; bid beginning 3 hours prior to acetaminophen, 96 hr): 3
- Survival (number of mice) ([1]; bid beginning 3 hours prior to acetaminophen, 112 hr): 3
- Survival (number of mice) ([1]; bid beginning 3 hours prior to acetaminophen, 120 hr): 3
- mice survived at 120 hours ([1]; bid beginning 48 hours prior to acetaminophen): 10 of 12
- Survival (number of mice) ([1]; bid beginning 48 hours prior to acetaminophen, 24 hrs): 12
- Survival (number of mice) ([1]; bid beginning 48 hours prior to acetaminophen, 40 hrs): 11
- Survival (number of mice) ([1]; bid beginning 48 hours prior to acetaminophen, 48 hrs): 10
- Survival (number of mice) ([1]; bid beginning 48 hours prior to acetaminophen, 64 hrs): 10
- Survival (number of mice) ([1]; bid beginning 48 hours prior to acetaminophen, 72 hrs): 10
- Survival (number of mice) ([1]; bid beginning 48 hours prior to acetaminophen, 88 hr): 10
- Survival (number of mice) ([1]; bid beginning 48 hours prior to acetaminophen, 96 hr): 10
- Survival (number of mice) ([1]; bid beginning 48 hours prior to acetaminophen, 112 hr): 10
- Survival (number of mice) ([1]; bid beginning 48 hours prior to acetaminophen, 120 hr): 10
- survival versus control mice ([1]; dosing begun immediately following acetaminophen, once or twice daily): No difference
- 15-PGDH mRNA levels (real-time PCR) ([2]; V503 cells): slight increase in 15-PGDH mRNA
- 15-PGDH mRNA levels (real-time PCR) ([2]; treated colon cancer cell lines): do not in general alter 15-PGDH mRNA levels
- rank of PGE2 level in the medium ([3]; 100 nM drug, FIG. 44): next highest level of PGE2
- PGE2 levels in medium ([3]; IL1-beta 23 hours, compound added for the last 5 hours): clear inhibition of 15-PGDH activity
- luciferase activity of cells expressing 15-PGDH luciferase fusion construct [4]: increase luciferase activity
- number of surviving mice ([5]; 1 × 10^5 donor marrow cells, Day 2): 3
- number of surviving mice ([5]; 1 × 10^5 donor marrow cells, Day 3): 3
- number of surviving mice ([5]; 1 × 10^5 donor marrow cells, Day 4): 2
- number of surviving mice ([5]; 1 × 10^5 donor marrow cells, Day 5): 1
- number of surviving mice ([5]; 1 × 10^5 donor marrow cells, Day 6): 0
- number of surviving mice ([5]; 2 × 10^5 donor marrow cells, Day 2): 3
- number of surviving mice ([5]; 2 × 10^5 donor marrow cells, Day 3): 3
- number of surviving mice ([5]; 2 × 10^5 donor marrow cells, Day 4): 3
- number of surviving mice ([5]; 2 × 10^5 donor marrow cells, Day 5): 3
- number of surviving mice ([5]; 2 × 10^5 donor marrow cells, Day 6): 2
- number of surviving mice ([5]; 2 × 10^5 donor marrow cells, Day 7): 2
- number of surviving mice ([5]; 2 × 10^5 donor marrow cells, Day 8): 2
- number of surviving mice ([5]; 2 × 10^5 donor marrow cells, Day 9): 2
- number of surviving mice ([5]; 2 × 10^5 donor marrow cells, Day 10): 2
- number of surviving mice ([5]; 2 × 10^5 donor marrow cells, Day 11): 2
- number of surviving mice ([5]; 2 × 10^5 donor marrow cells, Day 12): 1
- number of surviving mice ([5]; 2 × 10^5 donor marrow cells, Day 13): 0
- number of surviving mice ([5]; 5 × 10^5 donor marrow cells, Day 2): 3
- number of surviving mice ([5]; 5 × 10^5 donor marrow cells, Day 3): 3
- number of surviving mice ([5]; 5 × 10^5 donor marrow cells, Day 4): 3
- number of surviving mice ([5]; 5 × 10^5 donor marrow cells, Day 5): 3
- number of surviving mice ([5]; 5 × 10^5 donor marrow cells, Day 6): 3
- number of surviving mice ([5]; 5 × 10^5 donor marrow cells, Day 7): 3
- number of surviving mice ([5]; 5 × 10^5 donor marrow cells, Day 8): 2
- number of surviving mice ([5]; 5 × 10^5 donor marrow cells, Day 9): 2
- number of surviving mice ([5]; 5 × 10^5 donor marrow cells, Day 10): 2
- number of surviving mice ([5]; 5 × 10^5 donor marrow cells, Day 11): 2
- number of surviving mice ([5]; 5 × 10^5 donor marrow cells, Day 12): 2
- number of surviving mice ([5]; 5 × 10^5 donor marrow cells, Day 13): 2
- number of surviving mice ([5]; 5 × 10^5 donor marrow cells, Day 19): 2
- number of surviving mice ([5]; 11 Gy, 5 mg/kg IP bid, 1 × 10^5 donor marrow cells, Day 1): 3
- number of surviving mice ([5]; 11 Gy, 5 mg/kg IP bid, 2 × 10^5 donor marrow cells, Day 1): 3
- number of surviving mice ([5]; 11 Gy, 5 mg/kg IP bid, 5 × 10^5 donor marrow cells, Day 1): 3
- survival of transplanted mice ([5]; mouse, in vivo): promoted survival of mice receiving a bone marrow transplant
- serum ALT levels ([6]; 5 mg/kg IP bid, one mouse versus one control mouse): ALT values are lower
- hepatic mitosis versus controls ([6]; days 3 and 4): significantly increased hepatic mitosis
- BrdU positive (S-phase) cells in liver ([6]; post-operative day 2): clear increase in numbers of BrdU positive cells
- effect on CellTitre-Glo levels [7]: No effect on CellTitre-Glo levels

From patent US9790233B2, “Compositions and methods of modulating 15-PGDH activity” (CASE WESTERN RESERVE UNIVERSITY, priority 2012, dated 2017)
